# Values of other authors as cited in publication PMC4130638, “Structure of a Stapled Peptide Antagonist Bound to Nutlin-Resistant Mdm2” (PLoS ONE, 2014).
# “Also recorded” adds a separate entry of the source.
# What was measured:
# [1] = tested on: Mdm2 Q24R (N-terminal domain); conditions: Q24R mutation in N-terminal domain of Mdm2
# [2] = tested on: Mdm2 M62A (N-terminal domain); conditions: M62A mutation in N-terminal domain of Mdm2
substance,measurement,setting,value
Nutlin-3a,binding affinity for Mdm2 Q24R,[1],selectively reducing affinity for Nutlin but not p53
same,binding affinity for Mdm2 M62A,[2],"precludes binding of Nutlin, but not p53; also recorded: selectively reducing affinity for Nutlin but not p53; also recorded: significantly impairing binding"
